Legend:
[1] = tested on: mouse hepatocytes; test: In vitro metabolism of Compound 2 in mouse cryopreserved hepatocytes; type: in vitro ADME; set-up: key to Relative abundance of metabolite of Compound 2, Mouse: ND Not detected.; trace: Trace: observed by HPLC/MS measurements only.; + Minor as assessed by HPLC/UV measurements; ++ moderate as assessed by HPLC/UV measurements; +++ major as assessed by HPLC/UV measurements.; * m/z 593 and m/z 505 co-eluted in rabbit hepatocytes.; ** m/z 591 c and m/z 593 were merged in human hepatocytes and Hepatopack.; *** m/z 607 and m/z 751 b were merged in rabbit hepatocytes; conditions: for metabolite of Compound 2 observed in mouse hepatocyte incubations: 10 μM Compound 2, 7.5×10^5 cells/mL, 1 and 4 hrs composite; for Relative abundance of metabolite of Compound 2, Mouse: mouse cryopreserved hepatocytes, HPLC/UV/MS
Experimental: (§1) Male CD-1 mouse hepatocytes (lot YHL), male Wistar-Han rat hepatocytes (Celsius; product number: M000065; lot: SLA), female New Zealand rabbit hepatocytes (lot 1510147), male cryopreserved cynomolgus monkey hepatocytes (Celsius; product number: M00305; lot: DNB) and mixed-gender cryopreserved human hepatocytes (Bioreclamation; product number: S01988; lot: DCM) were obtained for the hepatocyte in-vitro assessments.
(§2) At time 0 hrs 550 μL aliquots were removed from incubations and quenched with 5 volumes of ACN containing 0.1% formic acid. At 1 and 4 hrs, 275 μL aliquots were removed and quenched as above; these were combined in the same tube to prepare a composite sample. For all hepatocyte experiments, samples were processed by centrifugation at 1900×g for 5 minutes, and then the supernatant was transferred to clean glass tubes and evaporated to dryness under a stream of N2 using a Turbovap at 37° C. Sample residues were reconstituted in mobile phase prior to analysis by HPLC/UV/MS^n.
(§3) Samples were analyzed by HPLC/UV/MS^n using a Thermo Orbitrap Elite mass spectrometer in conjunction with a Thermo Open Accela UHPLC system. A 3.0×150 mm, 2.5 μm Acquity CSH C18 HPLC column (Waters) was heated to 45° C. for separation of analytes. The mobile phase was a gradient of A): water containing 0.1% formic acid, and B): acetonitrile. The flow rate was 450 μL/min, and the following gradient program was utilized: […]
(§4) UV absorbance was monitored with a photo-diode array detector from 220-450 nm. The mass spectrometer was operated in positive-ion mode with a HESI ion source at a potential of 3.0 kV, and capillary and source heater temperatures of 380 and 300° C., respectively. Sheath, auxiliary, and sweep gas flows were set to 45, 10, and 2 units, respectively. Full scan mass spectra were acquired over the range 120-1200 m/z at a resolving power of 30,000 (specified at m/z 400). Data-dependent MS^n spectra were acquired in an automated fashion at 15,000 resolving power using CID and HCD fragmentation with normalized collision energy settings of 28 and 65 V, respectively.
(§5) Metabolites were characterized by comparisons of mass spectral fragmentation patterns with that of a Compound 2 standard. All HPLC/UV/MS^n data were processed using Xcalibur v. 2.2, and integrated UV peak areas were subjected to weighted UV binning procedures utilizing an Excel template.

[2] = tested on: rat hepatocytes; test: In vitro metabolism of Compound 2 in rat cryopreserved hepatocytes; type: in vitro ADME; set-up: key to Relative abundance of metabolite of Compound 2, Rat: ND Not detected.; trace: Trace: observed by HPLC/MS measurements only.; + Minor as assessed by HPLC/UV measurements; ++ moderate as assessed by HPLC/UV measurements; +++ major as assessed by HPLC/UV measurements.; * m/z 593 and m/z 505 co-eluted in rabbit hepatocytes.; ** m/z 591 c and m/z 593 were merged in human hepatocytes and Hepatopack.; *** m/z 607 and m/z 751 b were merged in rabbit hepatocytes; conditions: for metabolite of Compound 2 observed in rat hepatocyte incubations: 10 μM Compound 2, 7.5×10^5 cells/mL, 1 and 4 hrs composite; for Relative abundance of metabolite of Compound 2, Rat: rat cryopreserved hepatocytes, HPLC/UV/MS
Experimental: as §1, §2, §3, §4, §5

[3] = tested on: rabbit hepatocytes; test: In vitro metabolism of Compound 2 in rabbit cryopreserved hepatocytes; type: in vitro ADME; set-up: key to Relative abundance of metabolite of Compound 2, Rabbit: ND Not detected.; trace: Trace: observed by HPLC/MS measurements only.; + Minor as assessed by HPLC/UV measurements; ++ moderate as assessed by HPLC/UV measurements; +++ major as assessed by HPLC/UV measurements.; * m/z 593 and m/z 505 co-eluted in rabbit hepatocytes.; ** m/z 591 c and m/z 593 were merged in human hepatocytes and Hepatopack.; *** m/z 607 and m/z 751 b were merged in rabbit hepatocytes; conditions: for metabolite of Compound 2 observed in rabbit hepatocyte incubations: 10 μM Compound 2, 7.5×10^5 cells/mL, 1 and 4 hrs composite; for Relative abundance of metabolite of Compound 2, Rabbit: rabbit cryopreserved hepatocytes, HPLC/UV/MS
Experimental: as §1, §2, §3, §4, §5

[4] = tested on: monkey hepatocytes; test: In vitro metabolism of Compound 2 in monkey cryopreserved hepatocytes; type: in vitro ADME, cynomolgus monkey; set-up: key to Relative abundance of metabolite of Compound 2, Monkey: ND Not detected.; trace: Trace: observed by HPLC/MS measurements only.; + Minor as assessed by HPLC/UV measurements; ++ moderate as assessed by HPLC/UV measurements; +++ major as assessed by HPLC/UV measurements.; * m/z 593 and m/z 505 co-eluted in rabbit hepatocytes.; ** m/z 591 c and m/z 593 were merged in human hepatocytes and Hepatopack.; *** m/z 607 and m/z 751 b were merged in rabbit hepatocytes; conditions: for metabolite of Compound 2 observed in monkey hepatocyte incubations: 10 μM Compound 2, 7.5×10^5 cells/mL, 1 and 4 hrs composite; for Relative abundance of metabolite of Compound 2, Monkey: monkey cryopreserved hepatocytes, HPLC/UV/MS
Experimental: as §1, §2, §3, §4, §5

[5] = tested on: human hepatocytes; test: In vitro metabolism of Compound 2 in human cryopreserved hepatocytes; type: in vitro ADME; set-up: key to Relative abundance of metabolite of Compound 2, Human: ND Not detected.; trace: Trace: observed by HPLC/MS measurements only.; + Minor as assessed by HPLC/UV measurements; ++ moderate as assessed by HPLC/UV measurements; +++ major as assessed by HPLC/UV measurements.; * m/z 593 and m/z 505 co-eluted in rabbit hepatocytes.; ** m/z 591 c and m/z 593 were merged in human hepatocytes and Hepatopack.; *** m/z 607 and m/z 751 b were merged in rabbit hepatocytes; conditions: for metabolite of Compound 2 observed in human hepatocyte incubations: 10 μM Compound 2, 7.5×10^5 cells/mL, 1 and 4 hrs composite; for Relative abundance of metabolite of Compound 2, Human: human cryopreserved hepatocytes, HPLC/UV/MS
Experimental: as §1, §2, §3, §4, §5

[6] = tested on: human co-cultured hepatocytes (Hepatopack); test: In vitro metabolism of Compound 2 in human micropatterned co-cultured hepatocytes (Hepatopack); type: in vitro ADME; set-up: key to Relative abundance of metabolite of Compound 2, Hepatopack: ND Not detected.; trace: Trace: observed by HPLC/MS measurements only.; + Minor as assessed by HPLC/UV measurements; ++ moderate as assessed by HPLC/UV measurements; +++ major as assessed by HPLC/UV measurements.; * m/z 593 and m/z 505 co-eluted in rabbit hepatocytes.; ** m/z 591 c and m/z 593 were merged in human hepatocytes and Hepatopack.; *** m/z 607 and m/z 751 b were merged in rabbit hepatocytes; conditions: human co-cultured hepatocytes (Hepatopack); HPLC/UV/MS
Text: Micro-patterned co-cultured (MPCC) hepatocyte 24-well plates containing human donors (16 wells each) were provided by Ascendance Biotechnology (formerly Hepregen Corp. (Medford, MA). [see Wang W W W, Khetani S R, Krzyzewski S, et al. Assessment of a Micropatterned Hepatocyte Coculture System to Generate Major Human Excretory and Circulating Drug Metabolites. Drug Metab Dispos 2010; 38(10):1900-5.] The MPCCs were created at Ascendance Biotechnology and maintained in serum containing medium for 5-6 days to allow for stabilization of the co-cultures prior to shipment. A mixed-gender cryopreserved pool of 10 human donors (X008001-P; lot YFA) was used to seed the plates and was purchased from BioreclamationIVT (Westbury, NY). MPCC hepatocytes are plated with fibroblasts in a 1:3 ratio with ˜25,000 hepatocytes/well in a 24-well plate. 24-Well MPCC plates were shipped to Pfizer, fresh medium (400 μL/well) was applied and cultures were kept at 37° C. with […] and 95% relative humidity for two days. Micropatterned co-cultures containing pooled hepatocytes were allowed 7 days to fully stabilize with respect to liver-specific functions. […] At respective time points (0, 2, and 7 days), the culture medium was removed and mixed with 4 volumes of ACN, then stored frozen at −40° C. until samples could be analyzed. Samples were subsequently processed by the addition of 2.5 mL of 1:1 ACN:MeOH containing 0.1% formic acid. After vortexing, the samples were centrifuged at 1900×g for 5 min, then the supernatant was transferred to 15 mL conical tubes and evaporated under N2 using a Turbovap set at 37° C. The residues were reconstituted in mobile phase (5:95 v:v ACN:0.1% aqueous formic acid) prior to analysis by HPLC/UV/MS^n.
as §3
as §4, with “Data-dependent MS^n spectra were acquired in an automated fashion at 15,000 resolving power using CID and HCD fragmentation with normalized collision energy settings of 28 and 65 V, respectively.” left out

[7] = Circulating metabolites of Compound 2 in rat plasma following a 1.0 mg/kg IV bolus dose; type: in vivo; conditions: 1.0 mg/kg IV bolus dose of Compound 2, pooled 0.033-24 hrs
Experimental: (§6) Plasma and bile samples were obtained from a bile duct cannulated rat experiment (Study PK-0111) in which a 1.0 mg/kg IV bolus dose was administered to fed male rats (N=3). No control plasma was available from this experiment.
Clin Pharmacol Ther 1981; 29(3):408-13]. The entire volume of each replicate Hamilton pool was combined to create a single pooled sample (576 μL) for analysis.
(§7) Pooled plasma and bile samples were extracted with ACN containing 0.1% formic acid, and after centrifugation at 1900×g, the supernatant was transferred to clean tubes and evaporated under N2 in a Turbovap set at 37° C. Residues were reconstituted in mobile phase (5:95 v:v ACN:0.1% aqueous formic acid) prior to analysis by HPLC/UV/MS^n.
as §3, §4, §5

[8] = Metabolites of Compound 2 in rat bile following a 1.0 mg/kg IV bolus dose; type: in vivo; conditions: 1.0 mg/kg IV bolus dose of Compound 2, bile duct cannulated rats, pooled 0-24 hrs
Experimental: as §6
Bile samples (0-3, 3-7, and 7-24 hrs) from individual animals were pooled in proportion to the amount collect in each interval. Then 0.5 mL of each individual pool was combined to prepare a composite sample for analysis.
as §7, §3, §4, §5

[9] = target: T1, human GLP-1R (Homo sapiens, UniProt P43220, L260F); test: CHO GLP-1R Clone C6 - Assay 2 (HTRF cAMP agonist assay, low receptor density); type: cell-based; conditions: CHO GLP-1R Clone C6 (low receptor density); for Emax: arithmetic mean, relative to 1 μM GLP-1
T1 construct: expressed in transfected cells
T1 sequence (P43220 24-463 L260F): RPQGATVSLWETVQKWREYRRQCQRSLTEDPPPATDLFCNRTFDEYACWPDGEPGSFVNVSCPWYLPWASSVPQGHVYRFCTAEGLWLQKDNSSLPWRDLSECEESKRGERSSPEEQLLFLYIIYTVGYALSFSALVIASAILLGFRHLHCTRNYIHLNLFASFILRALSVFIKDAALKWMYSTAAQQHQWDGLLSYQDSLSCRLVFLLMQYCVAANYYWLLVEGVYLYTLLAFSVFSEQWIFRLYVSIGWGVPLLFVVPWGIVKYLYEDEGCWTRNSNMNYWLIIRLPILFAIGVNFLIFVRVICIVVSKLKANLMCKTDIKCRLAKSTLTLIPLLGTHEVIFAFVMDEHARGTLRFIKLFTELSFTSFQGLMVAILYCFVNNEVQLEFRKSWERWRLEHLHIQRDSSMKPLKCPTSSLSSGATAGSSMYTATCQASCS
Experimental: GLP-1R-mediated agonist activity was determined with a cell-based functional assay utilizing an HTRF (Homogeneous Time-Resolved Fluorescence) cAMP detection kit (cAMP HI Range Assay Kit; Cis Bio cat #62AM6PEJ) that measures cAMP levels in the cell. The method is a competitive immunoassay between native cAMP produced by the cells and exogenous cAMP labeled with the dye d2. The tracer binding is visualized by a mAb anti-cAMP labeled with Cryptate. The specific signal (i.e. energy transfer) is inversely proportional to the concentration of cAMP in either a standard or an experimental sample.
The human GLP-1R coding sequence (NCBI Reference Sequence NP_002053.3, including naturally-occurring variant Leu260Phe) was subcloned into pcDNA5-FRT-TO and a clonal CHO cell line stably expressing a low receptor density was isolated using the Flp-In™ T-Rex™ System, as described by the manufacturer (ThermoFisher).
Cells were removed from cryopreservation, re-suspended in 40 mL of Dulbecco's Phosphate Buffered Saline (DPBS—Lonza Cat #17-512Q) and centrifuged at 800×g for 5 minutes at 22° C. The DPBS was aspirated, and the cell pellet was re-suspended in 10 mL of complete growth medium (DMEM:F12 1:1 Mixture with HEPES, L-Gln, 500 mL (DMEM/F12 Lonza Cat #12-719F), 10% heat inactivated fetal bovine serum (Gibco Cat #16140-071), 5 mL of 100× Pen-Strep (Gibco Cat #15140-122), 5 mL of 100× L-Glutamine (Gibco Cat #25030-081), 700 μg/mL Hygromycin (Invitrogen Cat #10687010) and 15 μg/mL Blasticidin (Gibco Cat #R21001). A 1 mL sample of the cell suspension in growth media was counted on a Becton Dickinson ViCell to determine cell viability and cell count per mL. The remaining cell suspension was then adjusted with growth media to deliver 1600 viable cells per well using a Matrix Combi Multidrop reagent dispenser, and the cells were dispensed into a white 384 well tissue culture treated assay plate (Corning 3570). The assay plate was then incubated for 48 hours at 37° C. in a humidified environment (95% O2, 5% CO2)
Varying concentrations of each compound to be tested (in DMSO) were diluted in assay buffer [HBSS with Calcium/Magnesium (Lonza/BioWhittaker cat #10-527F)/0.1% BSA (Sigma Aldrich cat #A7409-1L)/20 mM HEPES (Lonza/BioWhittaker cat #17-737E)] containing 100 μM 3-isobutyl-1-methylxanthin (IBMX; Sigma cat #15879). The final DMSO concentration in the compound/assay buffer mixture is 1%.
After 48 hours, the growth media was removed from the assay plate wells, and the cells were treated with 20 μL of the serially diluted compound in assay buffer for 30 minutes at 37° C. in a humidified environment (95% O2, 5% CO2). Following the 30 minute incubation, 10 μL of labeled d2 cAMP and 10 μL of anti-cAMP antibody (both diluted 1:20 in cell lysis buffer; as described in the manufacturer's assay protocol) were added to each well of the assay plate. The plates were then incubated at room temperature and after 60 minutes, changes in the HTRF signal were read with an Envision 2104 multi-label plate reader using excitation of 330 nm and emissions of 615 and 665 nm. Raw data were converted to nM cAMP by interpolation from a cAMP standard curve (as described in the manufacturer's assay protocol) and the percent effect was determined relative to a saturating concentration of the full agonist GLP-1 (1 μM) included on each plate. EC50 determinations were made from agonist dose response curves analyzed with a curve fitting program using a 4-parameter logistic dose response equation.

[10] = target: human GLP-1R (Homo sapiens, UniProt P43220, G168S); test: CHO GLP-1R Clone H6 - Assay 1 (HTRF cAMP agonist assay); conditions: read-out: Assay 1 Emax (%)
human GLP-1R (Homo sapiens, UniProt P43220, G168S), sequence (P43220 24-463 G168S): as the sequence (P43220 24-463 L260F) above, with G145S, F237L counted along it
Experimental: (§8) GLP-1R-mediated agonist activity was determined with a cell-based functional assay utilizing an HTRF (Homogeneous Time-Resolved Fluorescence) cAMP detection kit (cAMP HI Range Assay Kit; CisBio cat #62AM6PEJ) that measures cAMP levels in the cell. The method is a competitive immunoassay between native cAMP produced by the cells and exogenous cAMP labeled with the dye d2. The tracer binding is visualized by a mAb anti-cAMP labeled with Cryptate. The specific signal (i.e. energy transfer) is inversely proportional to the concentration of cAMP in either standard or experimental sample.
(§9) The human GLP-1R coding sequence (NCBI Reference Sequence NP_002053.3, including naturally-occurring variant Gly168Ser) was subcloned into pcDNA3 (Invitrogen) and a cell line stably expressing the receptor was isolated (designated Clone H6).
(§10) Cells were removed from cryopreservation, re-suspended in 40 mL of Dulbecco's Phosphate Buffered Saline (DPBS—Lonza Cat #17-512Q) and centrifuged at 800×g for 5 minutes at 22° C. The cell pellet was then re-suspended in 10 mL of growth medium [DMEM/F12 1:1 Mixture with HEPES, L-Gln, 500 mL (DMEM/F12 Lonza Cat #12-719F), 10% heat inactivated fetal bovine serum (Gibco Cat #16140-071), 5 mL of 100× Pen-Strep (Gibco Cat #15140-122), 5 mL of 100× L-Glutamine (Gibco Cat #25030-081) and 500 μg/mL Geneticin (G418) (Invitrogen #10131035)]. A 1 mL sample of the cell suspension in growth media was counted on a Becton Dickinson ViCell to determine cell viability and cell count per mL. The remaining cell suspension was then adjusted with growth media to deliver 2000 viable cells per well using a Matrix Combi Multidrop reagent dispenser, and the cells were dispensed into a white 384 well tissue culture treated assay plate (Corning 3570). The assay plate was then incubated for 48 hours at 37° C. in a humidified environment in 5% carbon dioxide.
(§11) Varying concentrations of each compound to be tested (in DMSO) were diluted in assay buffer (HBSS with Calcium/Magnesium (Lonza/BioWhittaker cat #10-527F)/0.1% BSA (Sigma Aldrich cat #A7409-1L)/20 mM HEPES (Lonza/BioWhittaker cat #17-737E) containing 100 μM 3-isobutyl-1-methylxanthin (IBMX; Sigma cat #15879). The final DMSO concentration is 1%.
(§12) After 48 hours, the growth media was removed from the assay plate wells, and the cells were treated with 20 μL of the serially diluted compound in assay buffer for 30 minutes at 37° C. in a humidified environment in 5% carbon dioxide. Following the 30 minute incubation, 10 μL of labeled d2 cAMP and 10 μL of anti-cAMP antibody (both diluted 1:20 in cell lysis buffer; as described in the manufacturer's assay protocol) were added to each well of the assay plate. The plates were then incubated at room temperature and after 60 minutes, changes in the HTRF signal were read with an Envision 2104 multi-label plate reader using excitation of 330 nm and emissions of 615 and 665 nm. Raw data were converted to nM cAMP by interpolation from a cAMP standard curve (as described in the manufacturer's assay protocol) and the percent effect was determined relative to a saturating concentration of the full agonist GLP-17-36 (1 μM) included on each plate. EC50 determinations were made from agonist dose-response curves analyzed with a curve fitting program using a 4-parameter logistic dose response equation.

[11] = target: human GLP-1R (Homo sapiens, UniProt P43220); test: as above
human GLP-1R (Homo sapiens, UniProt P43220), sequence (P43220 24-463 G168S): as the sequence (P43220 24-463 L260F) above, with G145S, F237L counted along it
Experimental: as §8, §9, §10, §11, §12

[12] = Metabolite profiling of pooled human plasma after repeat oral dosing of Compound 1 (HPLC/UV/MS)
Experimental: Plasma samples from nine human subjects following oral administration of 120 mg BID for 28 days in a clinical study were examined for metabolites.
Individual subject's plasma (from nine human subjects with 120 mg BID dose Day 28) were pooled in proportion to the time period represented by each to yield a pool for profiling that was representative of the AUC (0-12 hr) according to the method of Hamilton et al. [Hamilton R A, Garnett W R, Kline B J. Determination of a mean valproic acid serum level by assay of a single pooled sample. […] Pooled plasma time points were first prepared by aliquoting equal amounts (1.0 mL) of plasma from each subject prior to making a single Hamilton pool. Blank plasma pools were made by taking equal aliquots of predose samples. To a 2 mL aliquot of each pooled plasma sample was added 6 mL of acetonitrile and then mixed. Protein precipitated samples were centrifuged for 5 minutes at 2000×g and the supernatants were transferred to other clean 15 mL centrifuge tubes. Samples were dried using an evaporative centrifuge set to 37° C. Samples were reconstituted using 0.2 mL of 5:95 acetonitrile:water and analyzed by HPLC/UV/MS.
Reconstituted samples were analyzed by positive ion HPLC/UV/MS using a Thermo Orbitrap Elite mass spectrometer operating in positive ion electrospray mode. Xcalibur software version 3.0.63 was used to control the HPLC/UV/MS system. Full scan data were collected at 15,000 resolution. Data dependent product ion scans of the two most intense ions found in the full scan were obtained at 15,000 resolution. The dynamic exclusion function was used with a 10 second exclusion duration after 3 successive product ion scans with an early exclusion if the precursor ion fell below a signal to noise ratio of 20. The HPLC system consisted of an Accela quaternary solvent delivery pump, an Accela autoinjector, an Accela PDA Plus photodiode array detector (Thermo Electron Corporation). Chromatography was performed on a Phenomenex Kinetex column (2.1 mm×100 mm, 2.6 μm) at 45° C. using a HotSleeve column heater (Analytical Sales and Services). The mobile phase was composed of 0.1% formic acid in water (solvent A) and acetonitrile (solvent B). The solvent delivery gradient program was as follows:

| Structure (SMILES) | metabolite of Compound 2 observed in mouse hepatocyte incubations [1] | Relative abundance of metabolite of Compound 2, Mouse [1] | metabolite of Compound 2 observed in rat hepatocyte incubations [2] | Relative abundance of metabolite of Compound 2, Rat [2] | metabolite of Compound 2 observed in rabbit hepatocyte incubations [3] | Relative abundance of metabolite of Compound 2, Rabbit [3] | metabolite of Compound 2 observed in monkey hepatocyte incubations [4] | Relative abundance of metabolite of Compound 2, Monkey [4] | metabolite of Compound 2 observed in human hepatocyte incubations [5] | Relative abundance of metabolite of Compound 2, Human [5] | Relative abundance of metabolite of Compound 2, Hepatopack [6] | detected in rat plasma [7] | detected in rat bile [8] | Emax [9] | Emax [10] | EC50 ([9]; geometric mean) | EC50 [11] | observed as major or minor metabolite in human plasma ([12]; Compound 1 120 mg BID, Day 28) | Plasma Extracts ([12]; Compound 1 120 mg oral BID, Day 28, HPLC/UV/MS) |
| --- | --- | --- | --- | --- | --- | --- | --- | --- | --- | --- | --- | --- | --- | --- | --- | --- | --- | --- | --- |
| C[C@]1(c2ccc(Cl)cn2)Oc2cccc(C3CCN(Cc4nc5ccc(C(=O)O)cc5n4CC(O)CCO)CC3)c2O1 (stereo in doubt) [Metabolite 593] | observed in all hepatocyte incubations | + | observed in all hepatocyte incubations | trace | observed in all hepatocyte incubations | +++ | observed in all hepatocyte incubations | + | observed in all hepatocyte incubations | ** | ** | – | – | – | – | – | – | – | – |
| C[C@]1(c2ccc(Cl)cn2)Oc2cccc(C3CCN(Cc4nc5ccc(C(=O)O)cc5n4C[C@@H]4CCO4)CC3)c2O1 [Compound 2, 2-((4-((S)-2-(5-chloropyridin-2-yl)-2-methylbenzo[d][1,3]dioxol-4-yl)piperidin-1-yl)methyl)-1-(((S)-oxetan-2-yl)methyl)-1H-benzo[d]imidazole-6-carboxylic acid] | – | – | – | – | – | – | – | – | – | – | – | detected | detected | 96% | 99% | – | – | – | – |
| N#Cc1ccc(COc2cccc(C3CCN(Cc4nc5ccc(C(=O)O[C@@H]6O[C@H](C(=O)O)[C@@H](O)[C@H](O)[C@H]6O)cc5n4C[C@@H]4CCO4)CC3)n2)c(F)c1 [Compound M1, (2S,3S,4S,5R,6S)-6-((2-((4-(6-((4-cyano-2-fluorobenzyl)oxy)pyridin-2-yl)piperidin-1-yl)methyl)-1-(((S)-oxetan-2-yl)methyl)-1H-benzo[d]imidazole-6-carbonyl)oxy)-3,4,5-trihydroxytetrahydro-2H-pyran-2-carboxylic acid] | – | – | – | – | – | – | – | – | – | – | – | – | – | 98% | 114% | 2500 nM | 130 nM | minor metabolite | + |
| C[C@]1(c2ccc(Cl)cn2)Oc2cccc(-c3cc[n+](Cc4nc5ccc(C(=O)O)cc5n4C[C@@H]4CCO4)cc3)c2O1 [Metabolite 569] | observed in all hepatocyte incubations | + | observed in all hepatocyte incubations | trace | observed in all hepatocyte incubations | + | observed in all hepatocyte incubations | trace | observed in all hepatocyte incubations | + | + | – | – | – | – | – | – | – | – |
